Laboratory results published in US20240245691A1 (Sitryx Therapeutics Limited, priority 2021, published 2024).
Read-outs that look alike come from different tables or passages of the source.

How the values were obtained:
[1] = test system: IL-1β; test: THP-1 AlphaLISA IL-1β cytokine assay (differentiated THP-1 cells); assay type: cell-based; conditions: Homo sapiens
Procedure: (§1) Measuring Inhibitory Effects on IL-1V Cytokine and IL-6 Output from THP-1s
(§2) The cytokine inhibition profiles of compounds of formula (I) were determined in a differentiated THP-1 cell assay. All assays were performed in RPMI-1640 growth medium (Gibco), supplemented with 10% fetal bovine serum (FBS; Gibco), 1% penicillin-streptomycin and 1% sodium pyruvate unless specified otherwise. The IL-1β and IL-6 cytokine inhibition assays were run in a background of differentiated THP-1 cells as described below. All reagents described were from Sigma-Aldrich unless specified otherwise. Compounds were prepared as 10 mM DMSO stocks.
(§3) THP-1 cells were expanded as a suspension up to 80% confluence in appropriate growth medium. Cells were harvested, suspended, and treated with an appropriate concentration of phorbol 12-myristate 13-acetate (PMA) over a 72 hr period (37° C./5% CO2).
(§4) Following 72 hrs of THP-1 cell incubation, cellular medium was removed and replaced with fresh growth media containing 1% of FBS. Working concentrations of compounds were prepared separately in 10% FBS treated growth medium and pre-incubated with the cells for 30 minutes (37° C./5% CO2). Following the 30 minute compound pre-incubation, THP-1s were treated with an appropriate concentration of LPS and the THP-1s were subsequently incubated for a 24 hr period (37° C./5% CO2). An appropriate final concentration of Nigericin was then dispensed into the THP-1 plates and incubated for 1 hour (37° C./5% CO2) before THP-1 supernatants were harvested and collected in separate polypropylene 96-well holding plates.
(§5) Reagents from each of the IL-1β and IL-6 commercial kits (Perkin Elmer) were prepared and run according to the manufacturer's instructions. Subsequently, fluorescence signal detection in a microplate reader was measured (EnVision® Multilabel Reader, Perkin Elmer).
(§6) Percentage inhibition was calculated per cytokine by normalising the sample data to the high and low controls used within each plate (+/−LPS respectively).
(§7) Dimethyl itaconate and 4-octyl itaconate were included as comparator compounds.

[2] = test system: IL-6; test: THP-1 AlphaLISA IL-6 cytokine assay (differentiated THP-1 cells); assay type: cell-based; conditions: Homo sapiens
Procedure: as §1, §2, §3, §4, §5, §6, §7

[3] = Hepatocyte stability assay, human; assay type: in vitro ADME; conditions: human, hepatocytes, T½
Excerpt: (§8) Defrosted cryo-preserved hepatocytes (viability>70%) were used to determine the metabolic stability of a compound via calculation of intrinsic clearance (CIint; a measure of the removal of a compound from the liver in the absence of blood flow and cell binding). Clearance data are particularly important for in vitro work as they can be used in combination with in vivo data to predict the half-life and oral bioavailability of a drug.
(§9) The metabolic stability in hepatocytes assay involved a time-dependent reaction using both positive and negative controls. The cells must be pre-incubated at 37° C. then spiked with test compound (and positive control); samples taken at pre-determined time intervals were analysed to monitor the change in concentration of the initial drug compound over 60 minutes. A buffer incubation reaction (with no hepatocytes present) acted as a negative control and two cocktail solutions, containing compounds with known high and low clearance values (verapamil/7-hydroxycoumarin and propranolol/diltiazem), acted as positive controls. • 1. The assay was run with a cell concentration of 0.5×10^6 cells/mL in Leibovitz buffer. • 2. All compounds and controls were run in duplicate. • 3. Compound concentration was 10 μM. • 4. All compounds and controls were incubated with both cells and buffer to show turnover is due to hepatic metabolism. • 5. All wells on the incubation plate had 326.7 μL of either cells or buffer added. • 6. Prior to assay, cell and buffer-only incubation plates were preincubated for 10 mins at 37° C. • 7. The assay was initiated by adding compounds, 3.3 μL of 1 mM in 10% DMSO-90% Buffer; final DMSO concentration is 0.1%. • 8. Samples were taken at regular timepoints (0, 5, 10, 20, 40, 60 min) until 60 mins. • 9. Sample volume was 40 μL and added to 160 μL of crash solvent (acetonitrile with internal standard) and stored on ice. • 10. At the end of the assay, the crash plates were centrifuged at 3500 rpm for 20 mins at 4° C. • 11. 80 μL of clear supernatant was removed and mixed with 80 μL of deionised water before being analysed by LC-MS/MS.
(§10) Raw LC-MS/MS data were exported to, and analysed in, Microsoft Excel for determination of intrinsic clearance. The percentage remaining of a compound was monitored using the peak area of the initial concentration as 100%. Intrinsic clearance and half-life values were calculated using a graph of the natural log of percentage remaining versus the time of reaction in minutes.
(§11) 4-Octyl itaconate was included as a comparator compound.

[4] = test system: cryo-preserved hepatocytes; test: Hepatocyte stability assay, human; assay type: in vitro ADME; conditions: human, hepatocytes
Excerpt: as §8, §9, §10, §11

[5] = Hepatocyte stability assay, mouse; assay type: in vitro ADME; conditions: mouse, hepatocytes, T½
Excerpt: as §8, §9, §10, §11

[6] = test system: cryo-preserved hepatocytes; test: Hepatocyte stability assay, mouse; assay type: in vitro ADME; conditions: mouse, hepatocytes
Excerpt: as §8, §9, §10, §11

[7] = test system: NRF2 (nuclear factor erythroid 2-related factor 2); test: NRF2 +/-GSH activation assay (DiscoverX PathHunter NRF2 translocation kit, U2OS cells); assay type: cell-based; conditions: Homo sapiens; for Emax: U2OS, normalised to dimethyl fumarate high control; for EC50: U2OS PathHunter cells, 6 hours
[8] = THP-1, differentiated THP-1 cells, LPS 24 hr then Nigericin 1 hour, read-out: IL-1β (IC50)
[9] = THP-1, differentiated THP-1 cells, LPS 24 hr then Nigericin 1 hour, read-out: IL-6 (IC50)
[10] = +GSH, read-out: NRF2 activation Emax, +GSH
[11] = −GSH, read-out: NRF2 activation Emax, −GSH
[12] = +GSH, read-out: NRF2 activation EC50, +GSH
[13] = −GSH, read-out: NRF2 activation EC50, −GSH

IC50 [1, 8] [µM] | IC50 [2, 9] [µM] | half-life at 10 μM [3] [h] | Clint [4] [μL min^−1 10^−6 cells] | half-life at 10 μM [5] [h] | Clint [6] [μL min^−1 10^−6 cells] | EC50 [7, 12] [µM] | EC50 [7, 13] [µM] | half-life at 10 μM ([3]; data from repeated experiments) [h] | Clint, data from repeated experiments [4] | half-life at 10 μM ([5]; data from repeated experiments) [h] | Clint, data from repeated experiments [6] | SMILES | IC50 ([1]; THP-1, read-out: IL-1β (IC50)) [µM] | IC50 ([2]; THP-1, read-out: IL-6 (IC50)) [µM] | Emax [7, 10] [%] | Emax [7, 11] [%]
5.1 | 3.9 | 0.4 | 62 | < 0.05 | >460 |  |  |  |  |  |  | C=C(CC(=O)N[C@@H](C)c1ccc(C(F)(F)F)cc1)C(=O)OCCN(C)C [Example 26, 2-(dimethylamino)ethyl (S)-2-methylene-4-oxo-4-((1-(4-(trifluoromethyl)phenyl)ethyl)amino)butanoate] |  |  |  | 
9.2 | > 100 | > 7.67 | <3 | > 7.67 | <3 |  |  |  |  |  |  | C=C(CC(=O)N[C@@H](C)c1ccc(C(F)(F)F)cn1)C(=O)O [Example 30, (S)-2-methylene-4-oxo-4-((1-(5-(trifluoromethyl)pyridin-2-yl)ethyl)amino) butanoic acid] |  |  |  | 
13.9 | > 31.6 | 3.72 | 8 | 1.58 | 16 |  |  |  |  |  |  | C=C(CC(=O)N[C@@H](C)c1ccc(SC(F)(F)F)cc1)C(=O)O [Example 17] |  |  |  | 
58.3 | > 100 | > 7.67 | <3 | 6.48 | 4 |  |  |  |  |  |  | C=C(CC(=O)NC1(c2ccc(C(F)(F)F)cc2)CCCC1)C(=O)O [Example 14, 2-methylene-4-oxo-4-((1-(4-(trifluoromethyl)phenyl)cyclopentyl)amino) butanoic acid] |  |  |  | 
17.4 | > 100 | > 7.67 | <3 | 0.633 | 38 |  |  |  |  |  |  | C=C(CC(=O)N[C@@H](C)c1ccc(C(F)(F)C(F)(F)F)cc1)C(=O)O [Example 20, (S)-2-methylene-4-oxo-4-((1-(4-(perfluoroethyl)phenyl)ethyl)amino)butanoic acid] |  |  |  | 
26.9 | > 100 | > 7.67 | <3 | > 7.67 | <3 |  |  |  |  |  |  | C=C(CC(=O)NC1CCc2cc(C(F)(F)F)ccc21)C(=O)O (stereo not drawn) [Example 40, 2-methylene-4-oxo-4-((5-(trifluoromethyl)-2,3-dihydro-1H-inden-1-yl)amino) butanoic acid] |  |  |  | 
8.2 | > 100 | > 7.67 | <3 | 1.25 | 21 |  |  |  |  |  |  | C=C(CC(=O)NC(c1ccc(C(F)(F)F)cc1)C(F)(F)F)C(=O)O (stereo not drawn) [Example 7, 2-methylene-4-oxo-4-((2,2,2-trifluoro-1-(4-(trifluoromethyl)phenyl)ethyl)amino)butanoic acid] |  |  |  | 
12.3 |  | 1.95 | 12 | 1.63 | 31 | > 100 | 22.3 | 0.783 | 31ª μL min^−1 10^−6 cells | 0.183 | 133 μL min^−1 10^−6 cells | C=C(CC(=O)NCc1ccc(Cl)cc1)C(=O)OC1CCN(S(C)(=O)=O)CC1 [Example 1, 1-(methylsulfonyl)piperidin-4-yl 4-((4-chlorobenzyl)amino)-2-methylene-4-oxobutanoate] |  |  | 19 | 63
8.9 |  | 2.05 | 12 | 0.333 | 87 | > 100 | 46.2 |  |  |  |  | C=C(CC(=O)N[C@@H](C)c1ccc(C(F)(F)F)cn1)C(=O)OC1CCN(C)CC1 [Example 32, 1-methylpiperidin-4-yl (S)-2-methylene-4-oxo-4-((1-(5-(trifluoromethyl)pyridin-2-yl)ethyl)amino)butanoate] |  |  | 12 | 58
2.5 |  | 3.35 | 7 | 0.667 | 37 |  |  |  |  |  |  | C[C@H](NC(=O)C/C(=C\CCc1ccccc1)C(=O)O)c1ccc(C(F)(F)F)cc1 [Example 46, (S,E)-2-(2-oxo-2-((1-(4-(trifluoromethyl)phenyl)ethyl)amino)ethyl)-5-phenylpent-2-enoic acid] |  |  |  | 
2.1 |  | > 7.67 | <3 | 2.72 | 9 |  |  |  |  |  |  | CC/C=C(\CC(=O)N[C@@H](C)c1ccc(C(F)(F)F)cc1)C(=O)O [Example 43, (S,E)-2-(2-oxo-2-((1-(4-(trifluoromethyl)phenyl)ethyl)amino)ethyl)pent-2-enoic acid] |  |  |  | 
8.5 |  | 2 | 14 | 0.983 | 119 | 41.9 | 24.9 | 1.28 | 21ª μL min^−1 10^−6 cells | 0.15 | 156ª μL min^−1 10^−6 cells | C=C(CC(=O)NC1CCCCCCC1)C(=O)OC1CCN(S(C)(=O)=O)CC1 [Example 2, 1-(methylsulfonyl)piperidin-4-yl 4-(cyclooctylamino)-2-methylene-4-oxobutanoate] |  |  | 90 | 127

SMILES | IC50 [1, 8] [µM] | IC50 [2, 9] [µM] | half-life at 10 μM [3] [h] | Clint [4] [μL min^−1 10^−6 cells] | half-life at 10 μM [5] [h] | Clint [6] [μL min^−1 10^−6 cells] | EC50 [7, 12] [µM] | EC50 [7, 13] [µM] | half-life at 10 μM ([3]; data from repeated experiments) [h] | Clint, data from repeated experiments [4] | half-life at 10 μM ([5]; data from repeated experiments) [h] | Clint, data from repeated experiments [6] | IC50 ([1]; THP-1, read-out: IL-1β (IC50)) [µM] | IC50 ([2]; THP-1, read-out: IL-6 (IC50)) [µM] | Emax [7, 10] [%] | Emax [7, 11] [%]
C[C@H](NC(=O)C/C(=C\CN(C)C)C(=O)O)c1ccc(C(F)(F)F)cc1 [Example 49, (S,E)-4-(dimethylamino)-2-(2-oxo-2-((1-(4-(trifluoromethyl)phenyl)ethyl)amino)ethyl)but-2-enoic acid] |  |  | > 7.67 | <3 | > 7.67 | <3 |  |  |  |  |  |  | 16.5 | > 100 |  | 
